Data from patent US20240117385A1, “ENZYMES OF LUCIFERIN BIOSYNTHESIS AND USE THEREOF” (LIGHT BIO, INC., priority 2018, published 2024).

Tests used:
[1] = test system: hispidin hydroxylase and luciferase fusion protein; test: Bioluminescence of HEK293T cells expressing hispidin hydroxylase and luciferase fusion protein; assay type: cell-based, Neonothopanus nambi; conditions: 24 hours after transfection, 1 million of cells in 0.5 ml PBS; hispidin 10 μg per 1 million of cells
Text: Humanized DNA sequences coding hispidin-hydroxylase and luciferase of Neonothopanus nambi, obtained according to Example 2, were operatively cross-linked to each other by flexible short peptide linker with amino acid sequence GGSGGSGGS (SEQ ID NOs:115). Nucleotide and amino acid sequences of the obtained fused protein are shown in SEQ ID NO 101 and 102. Nucleic acid coding fused protein was cloned into pEGFP-N1 vector (Clontech, USA) instead of EGFP gene under Cytomegaloviral promoter control. The obtained structure was transfected into HEK293T cells. Analogous vectors, comprising individual genes of hispidin hydroxylase and luciferase, were also co-transfected. Transfection was performed by transfection agent FuGENE HD (Promega, USA) according to the manufacturer's protocol. 24 hours after transfection 1 million of cells were resuspended in 0.5 ml of PBS, and luminescence without adding hispidin and with addition of hispidin (10 μg per 1 million of cells) was recorded by luminometer.

[2] = test system: Neonothopanus nambi hispidin hydroxylase and luciferase; test: Bioluminescence reaction of biosynthetic hispidin; assay type: biochemical; conditions: hispidin purified from fermenter medium by HPLC
Method: The obtained E. coli strain was used for producing hispidin. At the first step the bacteria were incubated in five 50 ml plastic tubes in LB medium within 10 hours at 200 rpm fluctuation at 37° C. 250 ml of the obtained culture were added to 3.3 litres of fermentation medium into a fermenter Biostat B5 (Braun, Germany) so that initial culture optical density at 600 nm was about 0.35. Fermentation medium comprised 10 g/l of peptone, 5 g/l of caffeic acid, 5 g/l of yeast extract, 10 g/l of NaCl, 25 g/l of glucose, 15 g/l of (NH4)2SO4, 2 g/l of KH2PO4, 2 g/l of MgSO4·7 H2O, 14.7 mg/l of CaCl2), 0.1 mg/l of thiamine, 1.8 mg/l and 0.1% of the solution composed of: EDTA 8 mg/l, CoCl2·6 H2O 2.5 mg/l, MnCl2·4H2O 15 mg/l, CuCl2·2H2O 1.5 mg/l, H3BO3 3 mg/l, Na2MoO4·2H2O 2.5 mg/l, Zn(CH3COO)2·2H2O 13 mg/l, iron (III) citrate 100 mg/l, thiamine hydrochloride 4.5 mg/l. Fermentation was carried out at 37° C., with 3 l/min aeration and 200 rpm mixing. After 25 hours of cultivation arabinose was added to the culture up to final concentration of 0.1 mM. pH was automatically controlled by adding of NH4OH, […] pH to 7.0. […]

Danio rerio larvae = test: Bioluminescence of transgenic Danio rerio larvae after hispidin injection; assay type: in vivo; conditions: hispidin solution intravenously injected
Text: Transgenic fish Danio redo, comprising gene of Neonothopanus nambi hispidin hydroxylase were created according to the technique described in [Hisano et al., Sci Rep., 2015, 5:8841]. The technique includes expression of guide RNA and Cas9 nuclease for making a breakpoint in the region homologous to the guide RNA sequence. For the purpose of development of transgenic animals there were ordered synthetic DNA fragments comprising guide RNA sequences from pX330 plasmid, Addgene #42230 and mRNA of Cas9 nuclease under control of bacteriophage polymerase T7 promoter. The obtained fragments were used for transcription in vitro by means of reagents from MAXIscript T7 kit (Life Technologies, USA), and synthesized RNA was purified by means of DNA isolation kit (Evrogen, Russia).
Coding sequence of Neonothopanus nambi hispidin hydroxylase floxed by 50-nucleotide sequences from krtt1c19e Danio rerio gene, described in [Hisano et al., Sci Rep., 2015, 5:8841], was obtained synthetically and cloned into pEGFP/C1 plasmid base comprising pUC origin and kanamycin resistance cassette.
Hispidin solution was intravenously injected into Danio rerio larvae for recording bioluminescent signal according to the technique described in [Cosentino et al., J Vis Exp. 2010; (42): 2079]. Bioluminescence was recorded by means of IVIS Spectrum In Vivo Imaging System (Perkin Elmer). […]

activity in bioluminescence reaction [2]: active in bioluminescence reaction
SMILES: O=c1cc(O)cc(/C=C/c2ccc(O)c(O)c2)o1 [hispidin, (E)-6-(3,4-dihydroxystyryl)-4-hydroxy-2H-pyran-2-one]
cell luminescence on addition [1]: caused cell luminescence in green spectrum
bioluminescence intensity exceeding the signal from wild-type fish (Danio rerio larvae): minimum by two orders of magnitude
